Assay results taken from the supplement of paper PMC13380429.

Assays:
Conditions in all cases: 72 h
[1] = tested on: Calu-3; test: drug sensitivity score (DSS) for viability; higher = more toxic; extreme values may be limits of the assay
[2] = tested on: U2OS; test: as above
[3] = tested on: HepG2; test: as above
[4] = tested on: Caco-2; test: as above
[5] = tested on: Vero E6; test: as above
[6] = tested on: Calu-3; test: cell viability relative to DMSO; higher = less toxic
[7] = tested on: U2OS; test: as above
[8] = tested on: HepG2; test: as above
[9] = tested on: Caco-2; test: as above
[10] = tested on: Vero E6; test: as above
[11] = tested on: Calu-3; test: relative viability EC50 (midpoint between 100% and the lowest measured viability); higher = less toxic
[12] = tested on: U2OS; test: as above
[13] = tested on: HepG2; test: as above
[14] = tested on: Caco-2; test: as above
[15] = tested on: Vero E6; test: as above

Compound | drug sensitivity score [1] | drug sensitivity score [2] | drug sensitivity score [3] | drug sensitivity score [4] | drug sensitivity score [5] | cell viability ([6]; 1 nM) [%] | cell viability ([6]; 10 nM) [%] | cell viability ([6]; 100 nM) [%] | cell viability ([6]; 1000 nM) [%] | cell viability ([6]; 10000 nM) [%] | cell viability ([7]; 1 nM) [%] | cell viability ([7]; 10 nM) [%] | cell viability ([7]; 100 nM) [%] | cell viability ([7]; 1000 nM) [%] | cell viability ([7]; 10000 nM) [%] | cell viability ([8]; 1 nM) [%] | cell viability ([8]; 10 nM) [%] | cell viability ([8]; 100 nM) [%] | cell viability ([8]; 1000 nM) [%] | cell viability ([8]; 10000 nM) [%] | cell viability ([9]; 1 nM) [%] | cell viability ([9]; 10 nM) [%] | cell viability ([9]; 100 nM) [%] | cell viability ([9]; 1000 nM) [%] | cell viability ([9]; 10000 nM) [%] | cell viability ([10]; 1 nM) [%] | cell viability ([10]; 10 nM) [%] | cell viability ([10]; 100 nM) [%] | cell viability ([10]; 1000 nM) [%] | cell viability ([10]; 10000 nM) [%] | relative viability EC50 [11] [µM] | relative viability EC50 [12] [µM] | relative viability EC50 [13] [µM] | relative viability EC50 [14] [µM] | relative viability EC50 [15] [µM]
COc1ccc2c(c1)C(=O)N(CCc1ccc(S(=O)(=O)NC(=O)NC3CCCCC3)cc1)C(=O)C2(C)C [gliquidone] | 0 | 0 | 0 | 0 | 0 | 106 | 96.5 | 99.9 | 104 | 106 | 91 | 89.3 | 102 | 87.1 | 95.9 | 103 | 98.9 | 96.4 | 106 | 106 | 88.1 | 95.3 | 109 | 102 | 101 | 97.8 | 99.5 | 92.3 | 100 | 94.9 | > 10 | > 10 | > 10 | > 10 | > 10
C[N+]1(C)CCC(OC(=O)C(O)(c2ccccc2)C2CCCC2)C1 (stereo not given) [glycopyrrolate] | 0 | 0 | 0 | 0 | 0 | 102 | 105 | 97.7 | 102 | 98.5 | 101 | 102 | 98 | 99.5 | 95.1 | 108 | 99.3 | 97.4 | 92.3 | 105 | 104 | 98.6 | 94.8 | 103 | 96 | 106 | 100 | 100 | 99.7 | 98.3 | > 10 | > 10 | > 10 | > 10 | > 10
COC1=CC(=O)C[C@@H](C)[C@]12Oc1c(Cl)c(OC)cc(OC)c1C2=O [griseofulvin] | 0 | 0 | 0 | 0 | 0 | 106 | 95.7 | 98 | 107 | 108 | 102 | 100 | 102 | 98.8 | 96.2 | 86.3 | 95.5 | 95.6 | 101 | 90 | 106 | 88.5 | 93.6 | 103 | 88.1 | 104 | 98.8 | 91.1 | 107 | 94.8 | > 10 | > 10 | > 10 | > 10 | > 10
O=C(O)C1=CCCNC1 [guvacine] | 0.4 | 0 | 0 | 0 | 0 | 106 | 99 | 102 | 88.2 | 92.2 | 105 | 98.9 | 102 | 96.5 | 102 | 102 | 97 | 96.3 | 100 | 105 | 99.7 | 85.6 | 102 | 102 | 96.5 | 100 | 101 | 98 | 104 | 97.5 | > 10 | > 10 | > 10 | > 10 | > 10
Cc1nccc2c1[nH]c1ccccc12 [harmane] | 0 | 0 | 0 | 0 | 0 | 106 | 97.7 | 101 | 91.8 | 103 | 101 | 98.8 | 100 | 97.5 | 101 | 92.9 | 96.2 | 99.6 | 99.1 | 105 | 95.1 | 101 | 105 | 102 | 93 | 97.2 | 102 | 94.3 | 96.6 | 98.2 | > 10 | > 10 | > 10 | > 10 | > 10
CC(N)CCCC(C)(C)O (stereo not given) [heptaminol] | 0 | 0 | 0 | 0 | 0 | 94.4 | 144 | 103 | 101 | 94.2 | 95.1 | 97.7 | 98.1 | 103 | 105 | 106 | 96.3 | 102 | 95.6 | 104 | 90.3 | 91.7 | 96.7 | 107 | 106 | 95.1 | 95.7 | 97.3 | 94.3 | 104 | > 10 | > 10 | > 10 | > 10 | > 10
CCCCCCOC(=O)CCC(=O)CN [hexaminolevulinate] | 0 | 0 | 0 | 0 | 0 | 93.9 | 101 | 111 | 108 | 104 | 100 | 102 | 98.1 | 103 | 98.4 | 111 | 105 | 99 | 102 | 101 | 102 | 93.7 | 101 | 104 | 96.6 | 109 | 98 | 104 | 99.2 | 99.5 | > 10 | > 10 | > 10 | > 10 | > 10
C[N+]1(C)[C@@H]2CC[C@H]1C[C@@H](OC(=O)C(O)c1ccccc1)C2 (stereo not given in full) [homatropine-methylbromide] | 0 | 0 | 0 | 0.2 | 0 | 105 | 108 | 114 | 94.2 | 102 | 96.7 | 101 | 95.2 | 102 | 96.4 | 98.7 | 95.3 | 102 | 91.8 | 98.9 | 100 | 90.8 | 99.7 | 106 | 84.2 | 101 | 97.5 | 106 | 108 | 98.8 | > 10 | > 10 | > 10 | > 10 | > 10
Oc1ccc(O)cc1 [hydroquinone] | 0 | 0 | 0.3 | 0 | 0 | 90.5 | 90 | 93.7 | 100 | 113 | 95.2 | 91 | 95.4 | 89 | 117 | 106 | 92.4 | 94.7 | 100 | 84.6 | 100 | 97.6 | 94.2 | 104 | 106 | 93.3 | 100 | 94.8 | 105 | 111 | > 10 | > 10 | > 10 | > 10 | > 10
O=C(/C=C/c1ccc2c(c1)OCO2)N1CCCCC1 [ilepcimide] | 0 | 0 | 0 | 0 | 0 | 99.5 | 108 | 106 | 102 | 102 | 98.2 | 94.6 | 98.3 | 95.8 | 97.1 | 102 | 97.2 | 106 | 112 | 103 | 96.3 | 104 | 106 | 130 | 102 | 91 | 98.1 | 94.2 | 96.6 | 97.7 | > 10 | > 10 | > 10 | > 10 | > 10
Cn1cc(C[C@@H](N)C(=O)O)c2ccccc21 [indoximod] | 0 | 0 | 0 | 0.1 | 0 | 107 | 98.7 | 96.3 | 103 | 106 | 102 | 97 | 102 | 99.4 | 103 | 114 | 97.6 | 102 | 118 | 101 | 94.5 | 83.8 | 81.7 | 91.7 | 104 | 104 | 95.4 | 91.6 | 101 | 102 | > 10 | > 10 | > 10 | > 10 | > 10
CCC(NC(C)C)C(O)c1ccc(O)c(O)c1 (stereo not given) [isoetharine] | 0 | 0 | 0 | 0 | 0 | 108 | 98.9 | 88.4 | 103 | 95.6 | 90.2 | 97.3 | 95.1 | 95.4 | 94 | 102 | 96.7 | 104 | 101 | 102 | 85.9 | 100 | 118 | 102 | 104 | 93.1 | 91.8 | 92.9 | 91.9 | 102 | > 10 | > 10 | > 10 | > 10 | > 10
O=C(c1ccc(F)cc1)C1CCN(CCn2c(=O)[nH]c3ccccc3c2=O)CC1 [ketanserin] | 0 | 0 | 0 | 0 | 0 | 96.2 | 95.8 | 90.3 | 92.9 | 102 | 90 | 98.3 | 96.1 | 103 | 106 | 102 | 95 | 97.3 | 102 | 97.2 | 93.1 | 100 | 95.6 | 99.7 | 96.9 | 96.9 | 94.9 | 97.8 | 101 | 103 | > 10 | > 10 | > 10 | > 10 | > 10
Cc1ncc(OC[C@@]2(c3cccc(F)c3)C[C@H]2C(=O)Nc2ccc(F)cn2)c(C)n1 [lemborexant] | 0 | 0 | 0 | 0 | 0 | 100 | 100 | 97.6 | 99.6 | 106 | 100 | 100 | 96 | 101 | 98.1 | 97.1 | 103 | 97.8 | 97.9 | 97.3 | 94.9 | 97.5 | 89.6 | 94.5 | 100 | 97.4 | 98.1 | 96.8 | 101 | 96.2 | > 10 | > 10 | > 10 | > 10 | > 10
